According to patent publication US20160287566A1, “Anti-demodectic active agents and topical compositions for the treatment of demodicosis in humans and animals” (priority 2015, published 2016):
“Also recorded” adds a separate entry of the source.

Legend:
[1] = cited from earlier work
Demodex = test: Human in vivo testing of topical compositions (inventor's self-test, once daily at night) on signs and symptoms of demodicosis
Text: Demodectic mites rapidly desiccate and die when removed from the body and cannot reproduce in vitro, and skin conditions triggered by demodex are part of a complex innate immune response not yet fully explained by medical research. […] Treatment is preferentially once-daily, at night, with topical applications, of a rinse-off shampoo/shower gel, and of a leave-on skin lotion. Treatment of the inflammatory response to demodex with compositions comprising the invention is novel and not previously reported. Treatment of the inflammatory response to demodex includes treatment of type 1 flushing rosacea, type 2 acne rosacea, type 4 ocular rosacea, demodicosis gravis, granulomatous rosacea, and pityriasis folliculorum, and treatment of demodicosis in mammalian quadrupeds, namely, demodectic mange.
Sebaceous glands and meibomian glands clogged by mite-detritus atrophy somewhat, extending the time for complete meibomian gland and pilosebaceous unit healing to approximately 110 days.^12 The foregoing results are consistent with the suppression or eradication of demodectic mites, establishing piroctone olamine treatment as anti-demodectic, as shown by the reduction or elimination of blepharitis, meibomian gland dysfunction, and papules about the eyelids, nose, lips, and lip margins.
The rinse-off cleanser of the compositions comprising the invention, is used as a typical topical shampoo/shower gel, and can be used over the entire scalp and body, with the exception that the rinse-off cleanser is applied to a wet body and lathered without running shower-water, so that the cleanser can be massaged onto the skin and scalp for 3 to 5 minutes, paying particular attention to the face and margins of the eyelids, and then rinsed off. Neither composition is intended to be applied directly onto the cornea, as the eyes are expected to be shut when applying either composition.
The leave-on lotion described herein is used as any typical lotion, and can be used over the entire body, paying particular attention to the face and margins of the eyes, preferentially at night. […]

Malassezia = test: Self-treatment of seborrheic dermatitis with climbazole topical products; type: in vivo, human; conditions: rinse-off shampoo/shower gel and leave-on lotion with 0.07% climbazole as active ingredient, MCT oil base
Text: A brief history underscores the relevance of the test results. […] Dermatitis caused a severe impairment in the quality of life. Therefore, beginning three years ago, the inventor studied dermal inflammations, to conduct an accurate differential diagnosis and treat their skin condition. […] Hegor's product however contains sodium lauryl sulfate, which irritates the skin and so this shampoo cannot be used as a leave-on lotion. Moreover, all commercial lotions are formulated with oils with carbon-chain lengths longer than 10 such that Malassezia metabolizes all commercial lotions, which greatly exacerbated the inventor's seborrheic dermatitis. (See, non-patent reference number 30, by Wilde.) Dissatisfied with commercial products that made seborrheic skin conditions worse, sixteen months ago the inventor compounded topical compositions, a rinse-off shampoo/shower gel and a leave-on lotion, where the active ingredient was 0.07% climbazole and the base-oil was exclusively MCT oil (caprylic/capric oil), comprised only of carbon chain lengths of C8 and C10. While using this compounded topical treatment, all symptoms of seborrheic dermatitis induced by Malassezia were eliminated approximately one year ago. […]

[2] = usage thousands of time in excess of the compositions disclosed; cited from earlier work

Structure (SMILES)	solubility in water [1]	red eye and dry eye symptoms (Demodex; under 0.07% climbazole-only compositions, after seborrheic dermatitis symptoms were eliminated)	symptoms of seborrheic dermatitis induced by Malassezia (Malassezia)	toxicity in topical usage [2]	anti-demodectic treatment effect (concluded from symptom relief) (Demodex; after compounding and testing the compositions, human test subject)	symptoms and signs of blepharitis, meibomian gland dysfunction, and papules about the eyelid margins and lip margins (Demodex; topical compositions with 0.14% piroctone olamine as oil in water emulsion, rinse-off shampoo/shower gel and leave-on lotion once daily at night)
CC(C)(C)C(=O)C(Oc1ccc(Cl)cc1)n1ccnc1 (stereo not shown) [climbazole, 1-(4-Chlorophenoxy)-1-(imidazol-1-yl)-3,3-dimethyl-2-butanone]	barely soluble	increased significantly	eliminated			
Cc1cc(CC(C)CC(C)(C)C)n(O)c(=O)c1.NCCO (stereo not shown) [piroctone olamine, 1-Hydroxy-4methyl-6-(2,4,4-trimethylpentyl)-2(1H) pyridinone, 2-aminoethanol salt]	barely soluble			non-toxic	effective anti-demodectic treatment	reduced and eliminated; also recorded: rapid and dramatic reduction
